Three compounds from ChEMBL document CHEMBL1255361, “Differential antibiotic susceptibility of Mycobacterium abscessus variants in biofilms and macrophages compared to that of planktonic bacteria” (2008) can be followed below.

For experiment [1], the system named is Mycobacteroides abscessus. Briefly: Antimicrobial activity against Mycobacterium abscessus 390V after 96 hrs. The class given is functional.
Experiment [2] deals with Mycobacteroides abscessus. Briefly: Bacteriostatic activity against Mycobacterium abscessus 390S assessed as inhibition of planktonic cell growth up to 1024 ug/ml after 24 hrs. In kind it is functional, organism-based.
In experiment [3] the test system is Mycobacteroides abscessus. As to the kind of experiment: Bacteriostatic activity against Mycobacterium abscessus 390V infected in human monocyte-derived macrophage at 10 times MIC. The class given is functional, organism-based.
Experiment [4] has as its system Mycolicibacterium fortuitum. Briefly: Antimicrobial activity against Mycobacterium fortuitum. In kind it is functional.
Experiment [5] relates to Mycobacteroides abscessus. Briefly: Antimicrobial activity against Mycobacterium abscessus 390S assessed as inhibition of resuspended biofilm formation in replete medium. In kind it is functional.
Experiment [6] relates to Mycobacteroides abscessus. Briefly: Antimicrobial activity against Mycobacterium abscessus 390R after 96 hrs. In kind it is functional.
Experiment [7] relates to Mycobacteroides abscessus. Briefly: Antimicrobial activity against Mycobacterium abscessus 390S assessed as inhibition of planktonic cell growth in depleted medium. The class given is functional.
Experiment [8] relates to Mycobacteroides abscessus. As to the kind of experiment: Antimicrobial activity against Mycobacterium abscessus 390S assessed as inhibition of planktonic cell growth in replete medium. In kind it is functional.
The subject of experiment [9] is Mycobacteroides abscessus. Briefly: Antimicrobial activity against Mycobacterium abscessus 390S assessed as inhibition of biofilm formation at 64 ug/ml after 24 hrs. In kind it is functional.
Experiment [10] relates to Mycobacteroides abscessus. Briefly: Antimicrobial activity against Mycobacterium abscessus 390S. In kind it is functional.
The subject of experiment [11] is Mycobacteroides abscessus. Briefly: Antimicrobial activity against Mycobacterium abscessus 390S assessed as inhibition of biofilm formation up to 512 ug/ml after 24 hrs. In kind it is functional.
Experiment [12] has as its system Mycobacteroides abscessus. Briefly: Antimicrobial activity against Mycobacterium abscessus 390S assessed as inhibition of biofilm formation up to 128 ug/ml treated during mid log-phase. The class given is functional.
Experiment [13] deals with Mycobacteroides abscessus. Briefly: Antimicrobial activity against Mycobacterium abscessus 390S infected in human monocyte-derived macrophage assessed as reduction in viable bacteria count at 10 times MIC by […]. In kind it is functional, organism-based.
Experiment [14] concerns Mycobacteroides abscessus. As to the kind of experiment: Bacteriostatic activity against Mycobacterium abscessus 390R infected in human monocyte-derived macrophage assessed as inhibition of planktonic cell growth at 4 ug/ml treated 24 hrs postinfection. The class given is functional, organism-based.
Experiment [15] concerns Mycobacteroides abscessus. As to the kind of experiment: Bacteriostatic activity against Mycobacterium abscessus 390V infected in human monocyte-derived macrophage assessed as inhibition of planktonic cell growth at 4 ug/ml treated 24 hrs postinfection. The class given is functional, organism-based.
Experiment [16] relates to Mycobacteroides abscessus. As to the kind of experiment: Bacteriostatic activity against Mycobacterium abscessus 390S infected in human monocyte-derived macrophage assessed as inhibition of planktonic cell growth at 4 ug/ml treated 24 hrs postinfection. In kind it is functional, organism-based.
Experiment [17] relates to Mycobacteroides abscessus. Briefly: Antimicrobial activity against Mycobacterium abscessus 390S after 96 hrs. The class given is functional.
Experiment [18] deals with Mycobacteroides abscessus. As to the kind of experiment: Antimicrobial activity against Mycobacterium abscessus 390S assessed as inhibition of biofilm formation up to 128 ug/ml treated during lag-phase measured after 24 hrs. In kind it is functional, organism-based.

In brackets after ≈: the same amount, converted by molar mass. Activity calls are given as the source filed them.

On to `CO[C@@]1(NC(=O)Cc2cccs2)C(=O)N2C(C(=O)O)=C(COC(N)=O)CS[C@@H]21` [CEFOXITIN], for which the MIC – broadly, the smallest concentration in the dilution series that meets the test's criterion for growth inhibition – in experiment [1] is 8 µg/mL (≈ 18.7 µM); in experiment [4], 6.25 µg/mL (≈ 14.6 µM). For the same compound, the result in [2] and in experiment [3] was Active.

Turning to `NCC[C@H](O)C(=O)N[C@@H]1C[C@H](N)[C@@H](O[C@H]2O[C@H](CN)[C@@H](O)[C@H](O)[C@H]2O)[C@H](O)[C@H]1O[C@H]1O[C@H](CO)[C@@H](O)[C@H](N)[C@H]1O` [AMIKACIN], the MBC in experiment [5] was found to be 64 µg/mL (≈ 109 µM); in experiment [7] it was 128 µg/mL (≈ 219 µM); in experiment [8] it was 32 µg/mL (≈ 54.6 µM); in experiment [10], 64 µg/mL (≈ 109 µM). The MIC in [6] was 2 µg/mL (≈ 3.42 µM). In addition, in [9], the log10cfu is listed as 1.1. Besides, in [3], the outcome was Active.

In the case of `CC[C@H]1OC(=O)[C@H](C)[C@@H](O[C@H]2C[C@@](C)(OC)[C@@H](O)[C@H](C)O2)[C@H](C)[C@@H](O[C@@H]2O[C@H](C)C[C@H](N(C)C)[C@H]2O)[C@](C)(OC)C[C@@H](C)C(=O)[C@H](C)[C@@H](O)[C@]1(C)O` [CLARITHROMYCIN], the log10cfu was 0.6 in experiment [11] and 1 in [12]. Also, the result in [13], in experiment [14], in [15] and in experiment [16] was Active. Moreover, the MBC in experiment [5] worked out at 256 µg/mL (≈ 342 µM); in [7] it was 256 µg/mL (≈ 342 µM); in [8], 16 µg/mL (≈ 21.4 µM); in [10], 16 µg/mL (≈ 21.4 µM). The lowest concentration to inhibit growth in [17] (MIC) was 0.25 µg/mL (≈ 0.334 µM). Besides, the result in experiment [18] was inactive.
